Test results taken from US20240150301A1, “METHODS OF MODULATING ANDROGEN RECEPTOR CONDENSATES” (ETERN BIOPHARMA (SHANGHAI) CO., LTD., priority 2021, published 2024).

Key:
[1] = system: AR or AR-V7 downstream target genes; assay: AR/AR-V7 target gene qPCR assay in 22Rv1 cells; type: cell-based, human; conditions: 22Rv1, 48 h, RT-qPCR
Description: To evaluate the effect of exemplary compounds on mRNA expression of AR or AR-V7 downstream target genes, real-time quantitative PCR measurements were performed in prostate cancer cell line 22Rv1 expressing both AR and AR-V7.
22Rv1 cells were cultured in charcoal stripped FBS/phenol red-free RPMI medium for 24 h, and then treated with DMSO or test compounds for additional 48 h prior to RT-qPCR. Briefly, RNA was isolated from cells using RNeasy Mini Kit (Qiagen) following the manufacturer's protocol. RNA was reverse transcribed and subjected to qPCR using PowerUp™ SYBR™ Green Master Mix (Applied Biosystems). The relative quantity of the target genes was calculated using the ΔΔCt method by comparing Ct of the target genes and mean Ct of the housekeeping gene GAPDH.

AR = biological target: T1, AR (Homo sapiens, UniProt P10275); assay: ARE-luciferase reporter assay in LNCaP cells (DHT-induced); type: cell-based; conditions: 1 nM DHT, 24 h, normalized to cell viability, read-out: LNCaP ARE-luc IC50
T1 sequence (P10275 1-920 T878A): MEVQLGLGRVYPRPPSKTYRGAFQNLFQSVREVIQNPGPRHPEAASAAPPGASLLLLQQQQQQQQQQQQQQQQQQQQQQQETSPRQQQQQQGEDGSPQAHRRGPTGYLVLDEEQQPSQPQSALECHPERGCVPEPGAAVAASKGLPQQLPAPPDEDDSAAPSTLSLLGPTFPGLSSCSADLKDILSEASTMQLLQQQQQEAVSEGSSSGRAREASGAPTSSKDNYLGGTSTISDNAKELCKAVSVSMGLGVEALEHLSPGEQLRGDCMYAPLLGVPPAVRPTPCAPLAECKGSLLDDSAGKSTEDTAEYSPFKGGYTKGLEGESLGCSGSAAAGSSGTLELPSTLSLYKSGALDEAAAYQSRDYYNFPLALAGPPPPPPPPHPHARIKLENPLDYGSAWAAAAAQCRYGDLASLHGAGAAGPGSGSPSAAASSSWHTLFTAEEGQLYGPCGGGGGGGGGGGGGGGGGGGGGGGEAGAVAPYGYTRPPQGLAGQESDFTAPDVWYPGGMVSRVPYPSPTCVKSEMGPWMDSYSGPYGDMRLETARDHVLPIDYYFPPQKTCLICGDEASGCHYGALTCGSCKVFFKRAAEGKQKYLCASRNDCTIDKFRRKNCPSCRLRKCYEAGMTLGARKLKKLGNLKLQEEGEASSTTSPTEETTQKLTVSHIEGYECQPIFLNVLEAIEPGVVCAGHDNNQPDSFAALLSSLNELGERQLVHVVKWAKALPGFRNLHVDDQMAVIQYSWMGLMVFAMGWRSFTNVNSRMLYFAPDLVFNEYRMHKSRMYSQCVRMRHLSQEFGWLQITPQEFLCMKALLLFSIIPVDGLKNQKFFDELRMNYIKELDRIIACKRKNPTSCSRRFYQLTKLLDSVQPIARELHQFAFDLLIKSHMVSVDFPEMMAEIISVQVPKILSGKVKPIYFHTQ
Description: The ARE-luciferase reporter plasmid contains functional AREs (androgen response elements) to which AR binds in response to androgen to induce luciferase activity. LNCaP (Cobioer) cells were transiently transfected with the ARE-luciferase reporter in charcoal stripped FBS/phenol red-free RPMI medium prior to treatment for 24 hours. Then DMSO or test compounds with serial diluted concentrations were added one hour prior to the addition of DHT(1 nM). After 24 h of incubation with DHT, cells were lysed and luciferase activity was assayed using the ONE-Glo™ Luciferase Assay System (Promega) and measured using EnVision Multimode Plate Reader, according to manufacturer's instructions. Values were normalized to cell viability determined by CellTiter-Glo® Luminescent Cell Viability Assay Kit (Promega). […] GraphPad Prism graphing software was used to calculate IC50 values.

22Rv1 cells = assay: Cell proliferation assay (CellTiter-Glo), 22Rv1; type: cell-based; conditions: Homo sapiens, 22Rv1, 96 h; 4 days; read-out: 22Rv1 IC50 AR-positive; AR-V7 positive (cell proliferation)
Description: To evaluate the effect of exemplary compounds on proliferation of AR/AR-V7-dependent prostate cancer cells, cell viability assay was performed in LNCaP (AR-positive), 22Rv1 (AR-positive; AR-V7 positive), VCaP (AR-positive; AR-V7 positive), and DU145 (AR-negative) cells, respectively.
LNCaP cells were seeded in charcoal stripped FBS/phenol red-free RPMI medium in 96-well plates for 24 h before pretreating for 1 h with test compounds prior to addition of 0.2 nM DHT for 4 days. 22Rv1 or VCaP cells were cultured in charcoal stripped FBS/phenol red-free RPMI medium for 24 h before addition of test compounds for 4 days. DU145 cells were seeded in complete medium for 24 h before addition of test compounds for 4 days. Cell proliferation was measured with CellTiter-Glo® Luminescent Cell Viability Assay (Promega). In LNCaP cells, DHT-dependent cell growth is calculated by measuring the difference between vehicle control (DMSO) cells treated with or without 0.2 nM DHT. The IC50 values were determined using the four parameter fit via GraphPad Prism graphing software.

IC50 (22Rv1 cells) [µM]	SMILES	mRNA expression of target genes of either AR or AR-V7 [1]	IC50 (AR) [µM]
3.24	CC(C)(c1ccc(OCc2ccnc(N=S3(=O)CCNCC3)n2)cc1)c1cc(Cl)c(OCCCl)c(C#N)c1 [Compound 6, 3-chloro-2-(2-chloroethoxy)-5-(2-(4-((2-((1-oxido-1λ^6-thiomorpholin-1-ylidene)amino)pyrimidin-4-yl)methoxy)phenyl)propan-2-yl)benzonitrile]	inhibited mRNA expression	3.5
–	CC(C)(c1ccc(C#Cc2cnc(NS(C)(=O)=O)nc2)cc1)c1cc(Cl)c(OCCCl)c(C#N)c1 [Compound 60, N-(5-((4-(2-(3-chloro-4-(2-chloroethoxy)-5-cyanophenyl)propan-2-yl)phenyl)ethynyl)pyrimidin-2-yl)methanesulfonamide]	–	4.7
> 20	CC(C)(c1ccc(OCc2ccnc(NS(C)(=O)=O)n2)cc1)c1cc(Cl)c(OCCCl)c(C#N)c1 [Compound AA, N-(4-((4-(2-(3-chloro-4-(2-chloroethoxy)-5-cyanophenyl)propan-2-yl)phenoxy)methyl)pyrimidin-2-yl) methane sulfonamide, reference compound]	inhibited mRNA expression	12.6
